# Measurements reported in ChEMBL document CHEMBL3881527, “Multi-functional small molecules as anti-proliferative agents” (2008).
# Active and inactive are the calls of the source. The calls are words filed in the database; no cut-off is given here.
# Assays:
# [1] = Chemical stability in diluted solution; type: physicochemical
# A-431 = assay: Antitumor activity against human A431 cells xenografted in nu/nu athymic mouse assessed as tumor growth inhibition at 6 to 48 mg/kg, ip qd administered for 21 days measured twice weekly during compound dosing; type: functional, organism-based
# NCI-H358 = assay: Antitumor activity against human NCI-H358 cells xenografted in nu/nu athymic mouse assessed as tumor growth inhibition at 15 to 60 mg/kg, iv as 2 mins infusion administered via 7 days on 7 days off and 5 days on regimen measured twice weekly during compound dosing; type: functional, organism-based
# NCI-H292 = assay: Antitumor activity against human NCI-H292 cells xenografted in nu/nu athymic mouse assessed as tumor growth inhibition at 15 to 60 mg/kg, iv as 2 mins infusion administered via 7 days on 7 days off and 5 days on regimen measured twice weekly during compound dosing; type: functional, organism-based
# BXPC-3 = assay: Antitumor activity against human BxPC3 cells xenografted in nu/nu athymic mouse assessed as tumor growth inhibition at 10 to 40 mg/kg, iv as 2 mins infusion administered via 7 days on 7 days off and 2 days on regimen measured twice weekly during compound dosing; type: functional, organism-based
# PC-3 = assay: Antitumor activity against human PC3 cells xenografted in nu/nu athymic mouse assessed as tumor growth inhibition at 10 to 40 mg/kg, iv as 2 mins infusion administered via 7 days on 7 days off and 5 days on regimen measured twice weekly during compound dosing; type: functional, organism-based
# HCT-116 [2] = assay: Antitumor activity against human HCT116 cells xenografted in nu/nu athymic mouse assessed as tumor growth inhibition at 15 to 60 mg/kg, iv as 2 mins infusion administered via 5 days on 2 days off and 5 days on regimen measured twice weekly during compound dosing; type: functional, organism-based
# HPAC = assay: Antitumor activity against human HPAC cells xenografted in nu/nu athymic mouse assessed as tumor growth inhibition at 120 mg/kg, iv or ip administered in 30% captisol; type: functional, organism-based
# [3] = target: Cyclin-dependent kinase 2/cyclin E1 (Homo sapiens, UniProt P24941); assay: Inhibition of C-terminal His6-tagged full length CDK2/N-terminal GST-tagged recombinant full length human cyclin E1 expressed in baculovirus infected SF21 insect cells using histone H1 as substrate after 2 hrs in presence of [gamma-33P]-ATP
# CDK6/cyclin D3 = CDK6/cyclin D3 (Homo sapiens, UniProt Q00534); assay: Inhibition of N-terminal His6-tagged full length human CDK6/N-terminal GST-tagged recombinant full length human cyclin D3 expressed in baculovirus infected SF21 insect cells using histone H1 as substrate after 2 hrs in presence of [gamma-33P]-ATP
# CDK6/cyclin D3, sequence (P30281 whole entry): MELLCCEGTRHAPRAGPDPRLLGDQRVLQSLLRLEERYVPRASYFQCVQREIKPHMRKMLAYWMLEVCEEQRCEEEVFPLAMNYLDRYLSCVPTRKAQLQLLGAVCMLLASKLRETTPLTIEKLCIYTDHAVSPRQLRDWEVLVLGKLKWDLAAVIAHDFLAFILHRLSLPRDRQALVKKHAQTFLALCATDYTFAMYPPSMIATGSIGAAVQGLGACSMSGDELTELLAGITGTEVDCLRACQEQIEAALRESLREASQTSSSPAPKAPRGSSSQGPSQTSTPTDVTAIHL
# CDK6/cyclin D3, sequence (Q00534 whole entry): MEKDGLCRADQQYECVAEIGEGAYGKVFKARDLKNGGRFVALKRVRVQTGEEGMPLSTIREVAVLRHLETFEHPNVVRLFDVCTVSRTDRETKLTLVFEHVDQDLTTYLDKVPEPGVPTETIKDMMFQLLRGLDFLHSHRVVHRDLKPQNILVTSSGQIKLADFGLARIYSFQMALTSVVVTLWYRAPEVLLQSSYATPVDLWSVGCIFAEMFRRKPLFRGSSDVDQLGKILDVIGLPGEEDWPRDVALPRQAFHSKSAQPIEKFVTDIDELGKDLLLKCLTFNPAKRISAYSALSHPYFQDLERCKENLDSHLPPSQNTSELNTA
# [4] = Cytotoxicity against human CFPAC cells assessed as growth inhibition by measuring ATP levels after 72 hrs by ATPlite assay; type: functional, cell-based
# [5] = target: Vascular endothelial growth factor receptor 2 (Homo sapiens, UniProt P35968); assay: Inhibition of N-terminal GST-His6-thrombin cleavage site-fused human VEGFR2 (Asp805 to Val1356 residues) expressed in baculovirus expression system using biotinylated gastrin precursor at Tyr87 as substrate preincubated for 5 mins followed by substrate addition measured after 30 mins by DELFIA method
# [6] = target: Platelet-derived growth factor receptor beta (Homo sapiens, UniProt P09619); assay: Inhibition of N-terminal GST-His6-thrombin cleavage site-fused human PDGFRbeta (Arg561 to Leu1106 residues) assessed as decrease in biotinylated FLT3 phosphorylation at Tyr589 preincubated for 5 mins followed by substrate addition measured after 30 mins by DELFIA method
# [7] = target: Mast/stem cell growth factor receptor Kit (Homo sapiens, UniProt P10721); assay: (§1) Inhibition of human N-terminal GST-tagged human c-Kit (Thr544 to Val976 residues) expressed in baculovirus expression system assessed as decrease in biotinylated KDR phosphorylation at Tyr996 preincubated for 5 mins followed by substrate addition measured after 30 mins by DELFIA method
# Mast/stem cell growth factor receptor Kit, sequence (P10721 whole entry): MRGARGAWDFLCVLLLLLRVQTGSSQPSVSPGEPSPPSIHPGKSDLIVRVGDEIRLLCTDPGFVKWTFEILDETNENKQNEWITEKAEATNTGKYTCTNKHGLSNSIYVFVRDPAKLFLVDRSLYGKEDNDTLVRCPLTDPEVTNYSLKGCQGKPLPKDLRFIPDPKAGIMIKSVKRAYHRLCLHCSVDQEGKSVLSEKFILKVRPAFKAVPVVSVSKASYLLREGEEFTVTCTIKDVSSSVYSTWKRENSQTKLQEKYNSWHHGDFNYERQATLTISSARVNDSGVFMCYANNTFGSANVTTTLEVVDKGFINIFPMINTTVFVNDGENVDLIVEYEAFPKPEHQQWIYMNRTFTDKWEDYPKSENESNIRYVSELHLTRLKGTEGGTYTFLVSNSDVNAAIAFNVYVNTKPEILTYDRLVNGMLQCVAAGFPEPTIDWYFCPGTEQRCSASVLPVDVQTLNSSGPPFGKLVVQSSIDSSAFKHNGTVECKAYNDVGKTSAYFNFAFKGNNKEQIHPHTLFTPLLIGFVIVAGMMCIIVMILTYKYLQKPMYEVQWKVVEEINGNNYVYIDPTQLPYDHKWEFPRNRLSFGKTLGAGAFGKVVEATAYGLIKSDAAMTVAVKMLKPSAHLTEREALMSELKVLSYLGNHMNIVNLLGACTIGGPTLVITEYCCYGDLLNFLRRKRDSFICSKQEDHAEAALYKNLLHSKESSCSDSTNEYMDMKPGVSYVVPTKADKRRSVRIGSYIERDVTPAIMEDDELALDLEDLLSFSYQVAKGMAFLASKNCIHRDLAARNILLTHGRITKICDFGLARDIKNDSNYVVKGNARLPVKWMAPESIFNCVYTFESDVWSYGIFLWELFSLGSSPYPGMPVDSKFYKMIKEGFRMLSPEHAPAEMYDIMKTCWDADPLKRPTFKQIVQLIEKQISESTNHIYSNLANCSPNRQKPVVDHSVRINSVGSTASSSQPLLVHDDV
# [8] = Solubility of the compound at pH 3 to 4; type: physicochemical; settings: buffer
# [9] = target: Tyrosine-protein kinase ABL1 (Homo sapiens, UniProt P00519); assay: as §1, with “Abl1 (Pro118” for “c-Kit (Thr544”, “Ser553” for “Val976”, “biotin signal transduction protein” for “biotinylated KDR”, “Tyr160” for “Tyr996”
# Tyrosine-protein kinase ABL1, sequence (P00519 whole entry): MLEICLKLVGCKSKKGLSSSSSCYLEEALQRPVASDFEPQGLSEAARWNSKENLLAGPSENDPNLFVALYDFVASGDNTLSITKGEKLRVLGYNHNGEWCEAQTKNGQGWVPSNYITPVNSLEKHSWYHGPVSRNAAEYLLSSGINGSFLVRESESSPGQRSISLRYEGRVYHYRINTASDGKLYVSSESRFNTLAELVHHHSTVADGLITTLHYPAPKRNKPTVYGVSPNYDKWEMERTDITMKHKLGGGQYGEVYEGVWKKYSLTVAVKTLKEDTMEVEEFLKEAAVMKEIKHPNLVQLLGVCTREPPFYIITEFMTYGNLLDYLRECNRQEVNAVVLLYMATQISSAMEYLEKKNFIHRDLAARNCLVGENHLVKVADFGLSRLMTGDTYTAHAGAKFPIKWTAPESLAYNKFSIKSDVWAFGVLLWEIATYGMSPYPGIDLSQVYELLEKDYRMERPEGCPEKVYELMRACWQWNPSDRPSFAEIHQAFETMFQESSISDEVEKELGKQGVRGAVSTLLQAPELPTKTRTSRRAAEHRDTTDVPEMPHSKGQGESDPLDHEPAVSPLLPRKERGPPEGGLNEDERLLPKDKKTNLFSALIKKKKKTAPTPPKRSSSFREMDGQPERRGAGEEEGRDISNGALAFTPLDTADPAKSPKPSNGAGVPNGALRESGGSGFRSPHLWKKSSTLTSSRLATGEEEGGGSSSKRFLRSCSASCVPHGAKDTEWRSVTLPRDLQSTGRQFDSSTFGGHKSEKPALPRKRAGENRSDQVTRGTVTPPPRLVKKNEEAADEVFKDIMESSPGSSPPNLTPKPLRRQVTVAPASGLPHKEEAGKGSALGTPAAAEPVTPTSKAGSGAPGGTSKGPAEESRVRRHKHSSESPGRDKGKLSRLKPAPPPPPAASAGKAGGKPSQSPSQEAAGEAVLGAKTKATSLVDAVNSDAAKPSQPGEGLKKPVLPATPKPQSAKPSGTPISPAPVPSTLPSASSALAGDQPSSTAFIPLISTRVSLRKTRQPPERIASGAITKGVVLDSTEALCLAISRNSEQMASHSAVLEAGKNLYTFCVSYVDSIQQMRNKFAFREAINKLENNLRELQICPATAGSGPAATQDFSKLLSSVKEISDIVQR
# [10] = target: Proto-oncogene tyrosine-protein kinase Src (Homo sapiens, UniProt P12931); assay: Inhibition of human N-terminal GST-tagged full length human Src (Met1 to Leu536 residues) expressed in baculovirus expression system assessed as decrease in biotin signal transduction protein phosphorylation at Tyr160 preincubated for 5 mins followed by substrate addition measured after 30 mins by DELFIA method
# Proto-oncogene tyrosine-protein kinase Src, sequence (P12931 2-536 limits assumed): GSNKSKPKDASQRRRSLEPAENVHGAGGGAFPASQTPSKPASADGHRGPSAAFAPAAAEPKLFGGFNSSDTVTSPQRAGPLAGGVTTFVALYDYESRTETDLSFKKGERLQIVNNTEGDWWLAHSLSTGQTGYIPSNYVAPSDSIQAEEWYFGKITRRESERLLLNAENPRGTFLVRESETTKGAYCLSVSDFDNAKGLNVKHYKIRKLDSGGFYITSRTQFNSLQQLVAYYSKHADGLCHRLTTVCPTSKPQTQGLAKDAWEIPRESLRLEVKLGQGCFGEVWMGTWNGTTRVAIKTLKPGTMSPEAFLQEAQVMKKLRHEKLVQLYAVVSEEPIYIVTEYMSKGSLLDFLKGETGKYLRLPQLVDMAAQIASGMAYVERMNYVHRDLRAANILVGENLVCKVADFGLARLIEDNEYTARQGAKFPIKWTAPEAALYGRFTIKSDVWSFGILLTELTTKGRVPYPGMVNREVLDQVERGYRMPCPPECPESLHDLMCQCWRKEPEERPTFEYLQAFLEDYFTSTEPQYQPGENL
# [11] = Solubility of the compound at pH 4 to 5; type: physicochemical; settings: buffer
# [12] = target: Receptor tyrosine-protein kinase erbB-2 (Homo sapiens, UniProt P04626); assay: Inhibition of N-terminal GST-tagged human HER2 (Lys676 to Val1255 residues) expressed in baculovirus expression system using biotinylated FLT3 at Tyr589 as substrate preincubated for 5 mins followed by substrate addition measured after 30 mins by DELFIA method
# Receptor tyrosine-protein kinase erbB-2, sequence (P04626 whole entry): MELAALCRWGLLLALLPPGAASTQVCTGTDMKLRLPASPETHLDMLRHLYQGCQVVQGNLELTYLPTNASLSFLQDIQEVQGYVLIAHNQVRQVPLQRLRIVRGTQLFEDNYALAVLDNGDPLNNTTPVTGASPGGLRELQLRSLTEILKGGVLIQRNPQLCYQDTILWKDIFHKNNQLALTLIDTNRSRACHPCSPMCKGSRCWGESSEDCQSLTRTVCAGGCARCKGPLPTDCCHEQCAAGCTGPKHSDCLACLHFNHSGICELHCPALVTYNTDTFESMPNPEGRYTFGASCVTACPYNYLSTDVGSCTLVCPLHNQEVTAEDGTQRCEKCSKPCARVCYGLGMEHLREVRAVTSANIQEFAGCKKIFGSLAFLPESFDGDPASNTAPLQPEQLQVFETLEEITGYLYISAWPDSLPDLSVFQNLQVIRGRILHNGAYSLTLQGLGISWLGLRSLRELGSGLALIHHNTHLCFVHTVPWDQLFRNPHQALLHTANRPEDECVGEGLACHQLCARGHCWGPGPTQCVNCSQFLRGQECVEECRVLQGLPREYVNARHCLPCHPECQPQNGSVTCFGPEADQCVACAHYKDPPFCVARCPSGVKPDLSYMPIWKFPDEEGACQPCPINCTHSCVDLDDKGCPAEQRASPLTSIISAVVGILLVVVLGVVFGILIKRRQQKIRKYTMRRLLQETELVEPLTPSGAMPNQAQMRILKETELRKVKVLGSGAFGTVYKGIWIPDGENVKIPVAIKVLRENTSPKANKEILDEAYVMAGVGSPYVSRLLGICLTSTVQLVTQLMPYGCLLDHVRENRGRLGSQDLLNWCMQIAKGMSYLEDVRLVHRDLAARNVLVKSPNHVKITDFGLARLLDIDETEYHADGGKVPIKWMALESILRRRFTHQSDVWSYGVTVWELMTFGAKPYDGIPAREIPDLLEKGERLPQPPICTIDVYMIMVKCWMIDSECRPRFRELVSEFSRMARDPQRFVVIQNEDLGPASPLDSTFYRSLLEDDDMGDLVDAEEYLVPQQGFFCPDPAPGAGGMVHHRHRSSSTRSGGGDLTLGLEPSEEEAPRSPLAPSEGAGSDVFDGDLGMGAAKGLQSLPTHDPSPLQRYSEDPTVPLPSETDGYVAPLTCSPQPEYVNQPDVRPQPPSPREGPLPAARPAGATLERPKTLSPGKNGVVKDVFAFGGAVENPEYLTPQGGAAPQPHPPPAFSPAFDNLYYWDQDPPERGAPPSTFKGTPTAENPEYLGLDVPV
# [13] = target: Serine/threonine-protein kinase B-raf (Homo sapiens, UniProt P15056); assay: Inhibition of N-terminal GST-tagged recombinant human B-Raf ([…] residues) expressed in baculovirus infected Sf21 insect cells using MEK1 as substrate preincubated for 5 mins followed by substrate addition measured after 30 mins by DELFIA
# HCT-116 [14] = assay: Induction of apoptosis in human HCT116 cells assessed as increase in caspase3/7 activity after 24 hrs; type: functional, cell-based; settings: HCT-116, 24 h
# SK-BR-3 = assay: Induction of apoptosis in human SKBR3 cells assessed as increase in caspase3/7 activity after 24 hrs; type: functional, cell-based; settings: SK-BR-3, 24 h
# [15] = Antitumor activity against human A549 cells xenografted in nu/nu athymic mouse assessed as increase in tumor size at 120 mg/kg administered in 30% captisol after 24 hrs (reference value: 240%); type: functional
# [16] = Toxicity in CD1 mouse assessed as change in body weight up to 200 mg/kg, iv administered as single dose in 30% captisol measured over 9 days; type: organism-based; settings: in vivo, 216 h
# [17] = Toxicity in CD1 mouse assessed as change in body weight up to 100 mg/kg, ip administered as repeated dosing in 30% captisol measured over 7 days; type: organism-based; settings: in vivo, 168 h
# [18] = Toxicity in Sprague-Dawley rat assessed as change in body weight up to 200 mg/kg, ip administered as single dose in 30% captisol measured over 8 days; type: organism-based; settings: in vivo, 192 h
# [19] = target: Epidermal growth factor receptor (Homo sapiens, UniProt P00533); assay: Inhibition of N-terminal GST-fused human EGFR (His672 to Ala1210 residues) expressed in baculovirus expression system using biotinylated PTP1B at Tyr66 as substrate preincubated for 5 mins followed by substrate addition measured after 30 mins by DELFIA
# [20] = Solubility of the compound at pH 2 to 3; type: physicochemical; settings: buffer
# [21] = Drug uptake in iv dosed Sprague-Dawley rat plasma administered in 30% captisol as 5 mins infusion; type: ADME, organism-based; settings: in vivo
# Colon = assay: Cmax in CD1 mouse colon at 20 mg/kg, iv administered in 30% captisol as 2 mins infusion by LC/MS/MS analysis; type: ADME, organism-based; parameters: dose 20 mg/kg, route intravenous; settings: in vivo
smiles,measurement,setting,value
C#Cc1cccc(Nc2ncnc3cc(OC)c(OCCCCCCC(=O)N[O-])cc23)c1.[Na+],Stability,[1],> 12 h
C#Cc1cccc(Nc2ncnc3cc(OC)c(OCCCCCCC(=O)NO)cc23)c1,TGI,A-431,Active
same,TGI,NCI-H358,Active
same,TGI,NCI-H292,Active
same,TGI,BXPC-3,Active
same,TGI,PC-3,Active
same,TGI,HCT-116 [2],Active
same,TGI,HPAC,Active
CC(C)(C)c1cnc(CSc2cnc(NC(=O)CCCCCC(=O)NO)s2)o1,IC50,[3],≤ 100 nM
same,IC50,CDK6/cyclin D3,100 to 1000 nM
COc1cc2ncnc(N[C@H](C)c3ccccc3)c2cc1OCCCCCC(=O)NO,IC50,[4],1000 to 10000 nM
O=C(CCCCCCCNC(=O)c1cc(Oc2ccc(NC(=O)Nc3ccc(Cl)c(C(F)(F)F)c3)cc2)ccn1)NO,IC50,[5],100 to 1000 nM
same,IC50,[6],100 to 1000 nM
same,IC50,[7],≤ 100 nM
C#Cc1cccc(Nc2ncnc3cc(OC)c(OCCCCCCC(=O)NO)cc23)c1.O=C(O)C(O)C(O)C(=O)O,solubility,[8],60 mg/mL
same,Stability,[1],> 12 h
CC(C)(C)c1cnc(CSc2cnc(NC(=O)CCCCC(=O)NO)s2)o1,IC50,[3],≤ 100 nM
same,IC50,CDK6/cyclin D3,100 to 1000 nM
Cc1nc(Nc2ncc(C(=O)Nc3c(C)cccc3Cl)s2)cc(N2CCN(CC(=O)NO)CC2)n1,IC50,[6],≤ 100 nM
same,IC50,[9],≤ 100 nM
same,IC50,[10],≤ 100 nM
C#Cc1cccc(Nc2ncnc3cc(OC)c(OCCCCCCC(=O)NO)cc23)c1.O=C(O)CC(O)(CC(=O)O)C(=O)O,solubility,[11],25 mg/mL
same,Stability,[1],> 12 h
COc1cc2ncnc(NCc3ccccc3)c2cc1OCCCCCCC(=O)NO,IC50,[4],1000 to 10000 nM
CC(C)(C)c1cnc(CSc2cnc(NC(=O)CCCC(=O)NO)s2)o1,IC50,[3],≤ 100 nM
same,IC50,CDK6/cyclin D3,100 to 1000 nM
O=C(CCCCCCC(=O)NCc1cc(Oc2ccc(NC(=O)Nc3ccc(Cl)c(C(F)(F)F)c3)cc2)ccn1)NO,IC50,[5],≤ 100 nM
same,IC50,[6],100 to 1000 nM
same,IC50,[7],≤ 100 nM
COc1cc2ncnc(Nc3ccc(F)c(Cl)c3)c2cc1NC(=O)CCCCCCC(=O)NO,IC50,[12],100 to 1000 nM
same,IC50,[4],1000 to 10000 nM
O=C(CCCCCNC(=O)c1cc(Oc2ccc(NC(=O)Nc3ccc(Cl)c(C(F)(F)F)c3)cc2)ccn1)NO,IC50,[5],≤ 100 nM
same,IC50,[6],100 to 1000 nM
same,IC50,[7],≤ 100 nM
same,IC50,[13],1000 to 10000 nM
C#Cc1cccc(Nc2ncnc3cc(OCCOC)c(OCCOC)cc23)c1 [ERLOTINIB],IC50,HCT-116 [14],> 20000 nM
same,IC50,SK-BR-3,> 20000 nM
C#Cc1cccc(Nc2ncnc3cc(OC)c(OCCCCCCC(=O)NO)cc23)c1 [CUDC-101],IC50,[4],100 to 1000 nM
same,IC50,HCT-116 [14],170 nM
same,IC50,SK-BR-3,920 nM
same,Activity,[15],150%
same,Activity,[16],Non-Toxic
same,Activity,[17],Non-Toxic
same,Activity,[18],Non-Toxic
COCCOc1cc2ncnc(Nc3ccc(F)c(Cl)c3)c2cc1NC(=O)CCCCCCC(=O)NO,IC50,[12],≤ 100 nM
same,IC50,[4],1000 to 10000 nM
COc1cc2ncnc(Nc3ccc(F)c(Cl)c3)c2cc1OCCOc1ccc(/C=C/C(=O)NO)cc1,IC50,[19],≤ 100 nM
same,IC50,[4],≥ 10000 nM
CC(C)(C)c1cnc(CSc2cnc(NC(=O)Cc3ccc(OCCCCC(=O)NO)cc3)s2)o1,IC50,[3],≤ 100 nM
Cc1nc(NCCCCCCC(=O)NO)cc(Nc2ncc(C(=O)Nc3c(C)cccc3Cl)s2)n1,IC50,[6],≤ 100 nM
same,IC50,[9],≤ 100 nM
same,IC50,[10],≤ 100 nM
same,IC50,[7],≤ 100 nM
O=C(CCCCC(=O)NCc1cc(Oc2ccc(NC(=O)Nc3ccc(Cl)c(C(F)(F)F)c3)cc2)ccn1)NO,IC50,[5],≤ 100 nM
same,IC50,[6],100 to 1000 nM
same,IC50,[7],≤ 100 nM
CC(C)(C)c1cnc(CSc2cnc(NC(=O)Cc3ccc(OCCCC(=O)NO)cc3)s2)o1,IC50,[3],≤ 100 nM
Cc1nc(NCCCCCC(=O)NO)cc(Nc2ncc(C(=O)Nc3c(C)cccc3Cl)s2)n1,IC50,[6],≤ 100 nM
same,IC50,[9],≤ 100 nM
same,IC50,[10],≤ 100 nM
same,IC50,[7],≤ 100 nM
CC(C)(C)c1cnc(CSc2cnc(NC(=O)CCCCCCC(=O)NO)s2)o1,IC50,[3],≤ 100 nM
Cc1nc(Nc2ncc(C(=O)Nc3c(C)cccc3Cl)s2)cc(N2CCN(CCCCCCC(=O)NO)CC2)n1,IC50,[6],≤ 100 nM
same,IC50,[9],≤ 100 nM
same,IC50,[10],≤ 100 nM
same,IC50,[7],≤ 100 nM
Cc1nc(Nc2ncc(C(=O)Nc3c(C)cccc3Cl)s2)cc(N2CCN(CCCCCC(=O)NO)CC2)n1,IC50,[6],≤ 100 nM
same,IC50,[9],≤ 100 nM
same,IC50,[10],≤ 100 nM
same,IC50,[7],≤ 100 nM
C#Cc1cccc(Nc2ncnc3cc(OC)c(OCCCCCCC(=O)NO)cc23)c1.Cl,solubility,[20],25 mg/mL
same,Stability,[1],> 12 h
same,Drug uptake,[21],Dose-dependent effect
same,Cmax,Colon,8.5 µM
O=C(CCCCCCOc1ccc2ncnc(Nc3ccc(F)c(Cl)c3)c2c1)NO,IC50,[12],100 to 1000 nM
same,IC50,[4],100 to 1000 nM
